Values quoted from earlier work in patent US20260315441A1, “FORMULATIONS OF PENICILLIN AND METHODS FOR STABILIZING PENICILLIN” (VETERINARY PHARMACY CORPORATION, priority 2023, published 2026).
Like-named read-outs stand apart in the source and are kept apart here.

Structure (SMILES) | pH of highest stability (aqueous solution) | degradation of penicillin G (at 5° C.) [%/hour] | degradation of penicillin G (at 37° C.) [%/hour] | minimum degradation pH point (aqueous solution) [pH] | stability outside of the pH range of 5-8 (pH outside 5-8)
CC1(C)S[C@@H]2[C@H](NC(=O)Cc3ccccc3)C(=O)N2[C@H]1C(=O)O [Penicillin G, benzylpenicillin] | 5-8 pH | 1.92 | 3.29 |  | 
CC1(C)S[C@@H]2[C@H](NC(=O)Cc3ccccc3)C(=O)N2[C@H]1C(=O)O [Penicillin] |  |  |  | 6.5 | very unstable
